{
  "source": "paper PMC10458698",
  "about": "“Characterization of the interferences of systemic azole antifungal drugs with adrenal steroid biosynthesis using H295R cells and enzyme activity assays” (Current Research in Toxicology, 2023)",
  "key": {"[1]": {"target": "T1, CYP17A1 17,20-lyase (Homo sapiens, UniProt P05093)", "T1 construct": "expressed in transfected cells; host or cells: COS-1 cells, transient transfection, microsomal fraction", "T1 sequence (P05093 1-508)": "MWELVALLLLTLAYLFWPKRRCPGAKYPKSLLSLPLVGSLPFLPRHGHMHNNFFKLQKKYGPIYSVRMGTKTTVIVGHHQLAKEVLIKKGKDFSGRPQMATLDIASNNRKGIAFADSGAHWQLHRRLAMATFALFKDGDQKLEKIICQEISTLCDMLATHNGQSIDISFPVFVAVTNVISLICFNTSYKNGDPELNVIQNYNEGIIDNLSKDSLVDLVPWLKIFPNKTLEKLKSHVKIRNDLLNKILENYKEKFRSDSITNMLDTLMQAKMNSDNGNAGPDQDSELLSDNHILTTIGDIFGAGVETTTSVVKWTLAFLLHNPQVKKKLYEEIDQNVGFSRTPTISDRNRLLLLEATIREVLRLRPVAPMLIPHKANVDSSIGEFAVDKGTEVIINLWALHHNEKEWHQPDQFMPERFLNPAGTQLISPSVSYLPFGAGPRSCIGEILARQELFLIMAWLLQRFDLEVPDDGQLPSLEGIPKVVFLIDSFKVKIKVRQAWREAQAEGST", "experiment": "CYP17A1 17,20-lyase activity assay, microsomes of transfected COS-1 cells", "assay_type": "biochemical", "details": "for IC50: 17α-hydroxypregnenolone 500 nM, 1 h; for lower inhibitory potency against 17,20-lyase than posaconazole: relative to posaconazole", "protocol": "(§1) Microsomes were prepared from COS-1 cells transiently transfected with plasmids for either CYP17A1 and POR for CYP17A1-hydroxylase assay (human CYP17A1 was available in our own plasmid collection after cloning into pcDNA3, POR was ordered from Genescript, Piscataway, USA, clone ID OHu25584C), CYP17A1, POR and cytochrome b5 for CYP17A1 17,20-lyase assay (cytochrome b5 was from Genescript, clone ID OHu09495D), POR and CYP21A2 (Genescript, CYP21A2 clone ID OHu18602D), or 3β-HSD2 (Genescript, clone ID OHu14034D). Transfection was performed using PEI and equal amounts of required plasmids with a total DNA amount of 8 µg per transfection of 3,000,000 cells. After overnight incubation, cells were washed with prewarmed PBS before adding ice-cold PBS. Cells were collected and centrifuged at 600 × g for 4 min at 4 °C, washed with ice cold PBS and centrifuged again. The pellet was resuspended in a resuspension buffer (20 mM Tris, pH 7.5, 50 mM KCl, 2 mM MgCl2, 0.25 M sucrose). Cells were disrupted with 30 S by a glass potter (2 cm^3) as described above. The homogenate was centrifuged for 20 min at 12,000 × g and 4 °C. Microsomes were pelleted by ultracentrifugation at 100,000 × g for 1 h at 4 °C. The pellet was resuspended in reaction buffer and the protein concentration determined using the Pierce Protein BCA kit as described above.\nMicrosomes, 250 µg/mL, expressing CYP17A1, POR and cytochrome b5 were incubated in reaction buffer for 10 min with 1 mM NADPH and the azole antifungals. The reaction was started by adding 500 nM 17α-hydroxypregnenolone in a total reaction volume of 50 µL. After 1 h of incubation at 37 °C, the reaction was stopped adding 50 µL methanol. Samples were evaporated to dryness, reconstituted in 6 µL methanol, diluted 1:25 in water and the DHEA concentration was quantified using an ELISA kit (DEH3344, Demeditec, Kiel, Germany). Absorbance was measured using a BioTek Citation5 imaging reader."}, "[2]": {"target": "T2, CYP17A1 17α-hydroxylase (Homo sapiens, UniProt P05093)", "T2 construct": "expressed in transfected cells; host or cells: COS-1 cells, transient transfection, microsomal fraction", "T2 sequence (P05093 1-508)": "T1 sequence (P05093 1-508)", "experiment": "CYP17A1 17α-hydroxylase activity assay, microsomes of transfected COS-1 cells", "assay_type": "biochemical", "details": "cell-free; for inhibition of CYP17A1 17α-hydroxylase: in words; for IC50: progesterone 500 nM, 10 min, read-out: IC50 CYP17A1 17α-hydroxylase mean", "protocol": "as §1\n(§2) Microsomal protein (250 µg/mL) was preincubated with 1 mM NADPH and the compound of interest in reaction buffer for 10 min. The reaction was started by adding progesterone spiked with a radioactive tracer (final activity 0.025 mCi) to a final concentration of 500 nM. After 10 min of incubation at 37 °C the reaction was stopped by adding enzyme substrate and product at a final concentration of 1 mM in methanol, followed by shock-freezing in liquid nitrogen. Steroids were separated by thin layer chromatography on SIL G-25 UV254 TLC plates (Macherey-Nagel, Düren, Germany) using chloroform and ethyl acetate (1:4; v:v). Bands were excised and radiolabeled steroids analyzed by scintillation counting using […] Plus cocktail (Zinsser Analytic, Frankfurt am Main, Germany) and a β-counter (Packard, Connecticut, USA). Relative conversion was calculated based on total counts."}, "[3]": {"tested_on": "11β-HSD2", "design": "method as in Beck et al., 2017, Beck et al., 2020a", "details": "ref Beck et al., 2017, Beck et al., 2020a; cited from earlier work"}, "[4]": {"target": "T3, CYP21A2 (Homo sapiens, UniProt P08686)", "T3 construct": "host or cells: COS-1 cells, transient transfection, microsomal fraction", "T3 sequence (P08686 1-495)": "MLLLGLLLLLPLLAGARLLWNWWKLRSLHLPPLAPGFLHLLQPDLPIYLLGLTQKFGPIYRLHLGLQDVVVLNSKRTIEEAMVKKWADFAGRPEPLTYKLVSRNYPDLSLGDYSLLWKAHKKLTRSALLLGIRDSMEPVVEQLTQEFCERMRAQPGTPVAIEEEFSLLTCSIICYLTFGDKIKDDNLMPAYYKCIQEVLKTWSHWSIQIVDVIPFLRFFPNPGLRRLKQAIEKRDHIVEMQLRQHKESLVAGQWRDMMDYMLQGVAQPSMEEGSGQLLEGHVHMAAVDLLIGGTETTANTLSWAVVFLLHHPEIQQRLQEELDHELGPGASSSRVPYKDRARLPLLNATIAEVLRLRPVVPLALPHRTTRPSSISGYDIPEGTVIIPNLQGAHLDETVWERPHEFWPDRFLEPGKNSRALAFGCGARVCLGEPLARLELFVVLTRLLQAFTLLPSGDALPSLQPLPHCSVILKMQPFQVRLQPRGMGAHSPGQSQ", "experiment": "CYP21A2 activity assay, microsomes of transfected COS-1 cells", "assay_type": "biochemical", "details": "cell-free; for IC50: progesterone 500 nM, 10 min", "protocol": "as §1, §2"}, "[5]": {"design": "method as in earlier work", "details": "ref Zhang et al., 2018, Märtson et al., 2019, Vena et al., 2020, Risum et al., 2021, cited from earlier work"}},
  "note": "Where “and” joins values, the source holds several entries; their conditions need not be identical. Identical values can stand only once. Like-named read-outs stand apart in the source and are kept apart here.",
  "data": [
    {"smiles": "C[C@@H](c1nc(-c2ccc(C#N)cc2)cs1)[C@](O)(Cn1cncn1)c1cc(F)ccc1F", "note": "[isavuconazole]", "values": [
      {"measurement": "IC50", "setting": "[1]; cell-free", "value": 5.71, "unit": "µM"},
      {"measurement": "lower inhibitory potency against 17,20-lyase than posaconazole", "setting": "[1]", "value": 20, "unit": "times"},
      {"measurement": "inhibition of CYP17A1 17α-hydroxylase", "setting": "[2]", "value": "very weakly"},
      {"measurement": "IC50", "setting": "[2]", "value": "> 10", "unit": "µM"},
      {"measurement": "IC50", "setting": "[3]", "value": "~10000", "unit": "nM"},
      {"measurement": "inhibition of CYP21A2", "setting": "[4]; in words", "value": "weak inhibition"},
      {"measurement": "IC50", "setting": "[4]", "value": "8.1 µM and 8.14 µM"},
      {"measurement": "serum trough concentration", "setting": "[5]; molar value in brackets", "value": "~1", "unit": "µM"},
      {"measurement": "serum trough concentration", "setting": "[5]", "value": 4, "unit": "µg/mL"}
    ]},
    {"smiles": "CCC(C)n1ncn(-c2ccc(N3CCN(c4ccc(OCC5COC(Cn6cncn6)(c6ccc(Cl)cc6Cl)O5)cc4)CC3)cc2)c1=O", "note": "(centres unmarked) [itraconazole]", "values": [
      {"measurement": "IC50", "setting": "[1]; cell-free", "value": 5.76, "unit": "µM"},
      {"measurement": "lower inhibitory potency against 17,20-lyase than posaconazole", "setting": "[1]", "value": 20, "unit": "times"},
      {"measurement": "IC50", "setting": "[2]", "value": "> 10", "unit": "µM"},
      {"measurement": "IC50", "setting": "[3]", "value": 140, "unit": "nM"},
      {"measurement": "IC50", "setting": "[4]", "value": "> 10", "unit": "µM"},
      {"measurement": "serum trough concentration", "setting": "[5]", "value": "0.5 to 1", "unit": "µg/mL"}
    ]},
    {"smiles": "CC[C@@H]([C@H](C)O)n1ncn(-c2ccc(N3CCN(c4ccc(OC[C@@H]5CO[C@@](Cn6cncn6)(c6ccc(F)cc6F)C5)cc4)CC3)cc2)c1=O", "note": "[posaconazole, Posaconazole]", "values": [
      {"measurement": "IC50", "setting": "[1]; cell-free", "value": 0.28, "unit": "µM"},
      {"measurement": "inhibition of CYP17A1 17,20-lyase", "setting": "[1]; cell-free, in words", "value": "potently inhibited"},
      {"measurement": "preference for 17,20-lyase over the 17α-hydroxylase activity", "setting": "[1]; ratio of IC50 values", "value": "four-fold preference"},
      {"measurement": "inhibition of CYP17A1 17α-hydroxylase", "setting": "[2]", "value": "moderately inhibited"},
      {"measurement": "IC50", "setting": "[2]", "value": 1.12, "unit": "µM"},
      {"measurement": "IC50", "setting": "[3]", "value": 460, "unit": "nM"},
      {"measurement": "IC50", "setting": "[4]", "value": "> 10", "unit": "µM"},
      {"measurement": "serum trough concentration", "setting": "[5]", "value": "> 0.7", "unit": "µg/mL"}
    ]}
  ]
}
